Substitutions are numbered along the chain they refer to. In names and notes the source's numbering stands. Starred links: 1 amine or outer side, 2 acyl side, 3 side chain; linkers in the order of their positions; H or OH if unused. Positions of bridges follow the written chain, without caps; N, C: chain ends. Non-standard residues stand in square brackets, D forms with d. Residues, ends and D or L forms follow the SMILES beside them. Chains are numbered I, II in the order given. Actinocin(9to1) = Cc1c2oc3c(C)ccc(C(=O)[*:1])c3nc-2c(C(=O)[*:2])c(N)c1=O; NMeV = CN[C@H](C(=O)O)C(C)C; Sar = CNCC(=O)O
What was measured:
primary cortical neurons = conditions: screen at 16.7 µM, excluded from data analysis
Procedure: All 319 compounds were initially tested at a final concentration of 16.7 µM with three biological replicates.
(§1) Screening of compounds in the chemogenomic library was carried out using DIV13 primary forebrain cortical neurons cultured on poly-L-lysine/laminin-coated 96-well plates (Ibidi USA, Madison, WI). Cells were seeded at a density of 30,000 cells per well and treated with the compound library and BDNF according to the experimental design presented in Fig. 3a. After experimental treatment, cells were processed for Arc and acetyl-H3K9 immunocytochemistry according to the protocol described above. Both antigens (Arc and acetyl-H3K9) were imaged using an IN Cell Analyzer 6000 imaging system and a ×40 objective. […] High-throughput quantification of nuclear Arc immunofluorescence signal was performed in a similar fashion than the low-throughput procedure described above but with the exception that acetyl-H3K9 was used as a nuclear mask to guide the automated quantification of nuclear Arc immunofluorescence signal.

[1] = test system: nuclear Arc in primary cortical neurons; assay: Low-throughput nuclear Arc immunofluorescence assay (coverslips, Map2-positive cells); type: cell-based, mouse; conditions: co-treated with BDNF 6 h; k252a 100 nM, ActD 2 ng ml−1, CHX 50 µg ml−1, U0126 10 µM
Description: Next, using fluorescent immunocytochemistry we assessed to what extent the observed induction of total Arc protein expression measured by western blotting corresponded to an accumulation of Arc in the nucleus of our cultured neurons. We chose to focus on nuclear Arc at this point based on the assumption that it would provide a robust and easily tractable phenotype for testing a large set of compounds with the help of a quantitative, single-cell level, high-content, image-based screen. […] On the other hand, many but not all of the neurons in cultures that were treated with BDNF for 6 h had high levels of Arc in their nuclei (Fig. 2b). […] Finally, to further evaluate the sensitivity of our method to quantify nuclear Arc expression, we tested four pharmacological inhibitors predicted to prevent BDNF-induced Arc expression. […] These experimental results with known mechanism of action compounds critically guided the design and interpretation of the chemogenomic screen performed next.
Indirect immunofluorescence detection of antigens was carried out using cortical neurons cultured on poly-L-lysine/laminin-coated coverslips in 24-well plates at a density of 0.1 × 10^7 per well. After experimental treatment, cells were washed twice with PBS and fixed for 30 min at room temperature with 4% paraformaldehyde in PBS. After fixation, cells were washed twice with PBS, permeabilized with PBST (PBS + 0.25% Triton X-100) for 20 min, blocked in blocking solution (PBS + 5% normal goat serum) for another 30 min, and finally incubated overnight at 4 °C with the first primary antibody in blocking solution. The next day, coverslips were extensively washed with PBS and incubated for 2 h at room temperature in the appropriate fluorophore-conjugated secondary antibody solution (Alexa 488- or Alexa 594-conjugated secondary antibody (Molecular Probes, Invitrogen) in blocking solution). After washing with PBS, the coverslips were incubated again overnight in primary antibody solution for the second antigen, and the procedure for conjugation of the fluorophore-conjugated secondary antibody was repeated as above. Finally, cell nuclei were counterstained with 4′,6-diamidino-2-phenylindole (DAPI), and coverslips were mounted on glass slides with ProLong Antifade reagent (Invitrogen).
Cells cultured on coverslips from three independent biological replicates were imaged with an IN Cell Analyzer 6000 high-performance laser-based confocal imaging system and a ×40 objective (GE Healthcare Life Sciences, Marlborough, MA). Image preparation, assembly, and analysis were performed with ImageJ (NIH) and Photoshop CS. Change in contrast and evenness of the illumination was applied equally to all images presented in the study. The following procedure was used for low-throughput measurements. First, original raw tiff files were opened in ImageJ, the nucleus of all neurons in the image was located based on Map2 immunostaining, then average pixel intensity corresponding to Arc immunofluorescence was measured for a 30-pixel spot positioned at the center of the nuclear compartment. Second, for each measure of Arc nuclear immunofluorescence pixel intensity, a measure of background pixel intensity from the same image channel was acquired and subsequently subtracted from the Arc nuclear immunofluorescence pixel intensity value. Finally, Arc immunofluorescence signal from untreated samples was used to establish an objective threshold (two standard deviations above the nuclear Arc immunofluorescence signal averaged from a representative population of untreated neurons) and allow comparison of nuclear Arc expression between different experimental conditions.

[2] = test system: BDNF-induced nuclear Arc expression in primary cortical neurons; assay: Chemogenomic screen: high-content image-based assay of BDNF-induced nuclear Arc expression (96-well); type: cell-based, mouse; conditions: 16.7 µM, BDNF
How it was run: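 DIV13 mouse primary cortical neurons (30,000 cells/well) are treated with compound at 16.7 µM and BDNF, in three biological replicates. Arc and acetyl-H3K9 are immunostained and imaged at ×40, and nuclear Arc signal is quantified automatically using acetyl-H3K9 as the nuclear mask.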

acetyl-H3K9 = assay: Acetyl-H3K9 immunofluorescence in neuronal nuclei (multiplexed in screen); type: cell-based, mouse; conditions: screen, 16.7 µM
Procedure: To increase the throughput of our pharmacological screening for modulators of Arc, the above mentioned assay was adapted to cultures of mouse primary cortical neurons in 96-well plates.
as §1

Neuro2a cells = conditions: for Fold-change to WT: protein half-life in Neuro2a
Description: Next, we aimed to determine whether the K24, K33, K55, and K70 residues participate in Arc protein turnover. […] We also included K70 in this experiment because of its position in the coiled-coil and nuclear retention domains of Arc (Fig. 5e) as well as its relative proximity to K55. For this test, we used site-directed mutagenesis to generate plasmids that would allow overexpression of an acetyl-mimic/unmodifiable mutant Arc-Myc-FLAG protein (lysine (K) to glutamine (Q) mutant) for each of these four sites. After transfecting sets of Neuro2a cells with these different constructs, we inhibited translation with CHX and monitored overexpressed protein levels for up to 6 h after.
Lysates were collected at the indicated time points and Arc-Myc-FLAG protein level analyzed in every sample by western blotting with an anti-FLAG antibody. Representative western blots are presented on top and quantification of data normalized to corresponding β-actin and presented as percentage of Arc-Myc-FLAG level (±SEM) at the initial time point after CHX application (t = 0). Curve represents exponential decay fit. b Estimate of protein half-life Arc for WT Arc-Myc-FLAG and each acetyl-mimic mutant is presented in table. c WT and acetyl-mutant Arc-Myc-FLAG polyubiquitination was determined in lysates from overexpressing Neuro2a cells. Lysates were immunoprecipitated with anti-FLAG and western blotted with anti-Ub or anti-Arc as indicated.
Neuro2A cells were cultured in DMEM (supplemented with 10% fetal bovine serum (Gemini-Bio-Products, West Sacramento, CA), penicillin (50 units ml^−1), and streptomycin (50 µg ml^−1)) and transfected overnight using Lipofectamine 2000 (Invitrogen) according to the manufacturer’s protocol. The Neuro2A cell line was generously shared by Dr. Grace Gill.
The pCMV6-Arc-Myc-DDK (FLAG) plasmid (MR206218) was purchased from OriGene Biotechnologies (Rockville, MD). The Arc-Myc-FLAG K24Q, K24R, K33Q, K55Q, K70Q, and K70R plasmids were generated with the help of the Q5 Site-Directed Mutagenesis Kit from New England BioLabs (Ipswich, MA) using WT pCMV6-Arc-Myc-FLAG as template. All constructs were verified by DNA sequencing.

Molecule: Oc1cc(O)c2c(c1)O[C@H](c1cc(O)c(O)c(O)c1)[C@H](O)C2 [Epigallocatechin, Epigallocatechol, Epigallocatechin]
- Reason for exclusion (primary cortical neurons): Cell death - toxicity

Molecule: CCCCN(CC)c1nc(C)nc2c1c(C)c(C)n2-c1c(C)cc(C)cc1C.Cl [Antalarmin hydrochloride]
- Reason for exclusion (primary cortical neurons): Cell death - toxicity

Molecule: Cc1c2oc3c(C)ccc(C(=O)N[C@@H]4C(=O)N[C@H](C(C)C)C(=O)N5CCC[C@H]5C(=O)N(C)CC(=O)N(C)[C@@H](C(C)C)C(=O)O[C@@H]4C)c3nc-2c(C(=O)N[C@@H]2C(=O)N[C@H](C(C)C)C(=O)N3CCC[C@H]3C(=O)N(C)CC(=O)N(C)[C@@H](C(C)C)C(=O)O[C@@H]2C)c(N)c1=O [actinomycin D] (I: T[dV]P[Sar][NMeV] / II: T[dV]P[Sar][NMeV]; ester I:1-I:C, II:1-II:C; linker I:N-II:N via Actinocin(9to1))
- effect on BDNF-induced increase of nuclear Arc [1]: effectively prevented the increase of nuclear Arc

Molecule: CC(C)COc1ccc(CNC(=O)N(Cc2ccc(F)cc2)C2CCN(C)CC2)cc1 [Pimavanserin (ACP-103), Pimavanserin]
- Reason for exclusion (primary cortical neurons): Cell death - toxicity

Molecule: Nc1ccccc1NC(=O)c1ccc(CNC(=O)OCc2cccnc2)cc1 [entinostat, reference compound]
- occurrence of neuronal nuclei with above threshold nuclear Arc immunofluorescence signal, factor in relation to control (DMSO plus BDNF) [2]: ≥ 1.5
- impact on acetyl-H3K9 immunofluorescence (Z-score) (acetyl-H3K9): strong impact

Molecule: COc1cc2c(NC3CCN(C(C)C)CC3)nc(C3CCCCC3)nc2cc1OCCCN1CCCC1 [UNC 0638]
- Reason for exclusion (primary cortical neurons): Cell death - toxicity

Molecule: COC(=O)[C@@]1(O)C[C@H]2O[C@]1(C)n1c3ccccc3c3c4c(c5c6ccccc6n2c5c31)C(=O)NC4 [K252a]
- effect on BDNF-induced increase of nuclear Arc [1]: effectively prevented the increase of nuclear Arc

Molecule: CNCC[C@H](Oc1cccc2ccccc12)c1cccs1 [Duloxetine]
- Reason for exclusion (primary cortical neurons): Cell death - toxicity

Molecule: C[C@@H](NC(=O)C(=O)c1c[nH]c2ccc([N+](=O)[O-])cc12)c1ccccc1 [TCS 1205]
- Reason for exclusion (primary cortical neurons): Cell death - toxicity

Molecule: C[C@@H]1C[C@@H]([C@H](O)CC2CC(=O)NC(=O)C2)C(=O)[C@@H](C)C1 [cycloheximide]
- effect on BDNF-induced increase of nuclear Arc [1]: effectively prevented the increase of nuclear Arc

B1: WT: wild-type mouse Arc-Myc-FLAG protein overexpressed in Neuro2a cells (protein, UniProt Q9WV31 1-396, looked up)
Activity-regulated …: MELDHMTTGGLHAYPAPRGGPAAKPNVILQIGKCRAEMLEHVRRTHRHLLTEVSKQVERELKGLHRSVGKLENNLDGYVPTGDSQRWKKSIKACLCRCQETIANLERWVKREMHVWREVFYRLERWADRLESMGGKYPVGSEPARHTVSVGVGGPEPYCQEADGYDYTVSPYAITPPPAAGELPEQESVEAQQYQSWGPGEDGQPSPGVDTQIFEDPREFLSHLEEYLRQVGGSEEYWLSQIQNHMNGPAKKWWEFKQGSVKNWVEFKKEFLQYSEGTLSREAIQRELELPQKQGEPLDQFLWRKRDLYQTLYVDAEEEEIIQYVVGTLQPKLKRFLRHPLPKTLEQLIQRGMEVQDGLEQAAEPSGTPLPTEDETEALTPALTSESVASDRTQPE
modifications: Myc-FLAG tag
- Estimated t½ (Neuro2a cells): 2.77 h
- Fold-change to WT (Neuro2a cells): 1.00

B2: K55Q: acetyl-mimic/unmodifiable mutant Arc-Myc-FLAG, lysine 55 to glutamine (protein, UniProt Q9WV31 1-396, looked up, variant K55Q)
Activity-regulated …: B1 Activity-regulated … with K55Q
modifications: Myc-FLAG tag
notes: acetyl-mimic/unmodifiable mutant Arc-Myc-FLAG, lysine 55 to glutamine
- Estimated t½ (Neuro2a cells): 2.40 h
- Fold-change to WT (Neuro2a cells): −1.15

B3: K33Q: acetyl-mimic/unmodifiable mutant Arc-Myc-FLAG, lysine 33 to glutamine (protein, UniProt Q9WV31 1-396, looked up, variant K33Q)
Activity-regulated …: B1 Activity-regulated … with K33Q
modifications: Myc-FLAG tag
notes: acetyl-mimic/unmodifiable mutant Arc-Myc-FLAG, lysine 33 to glutamine
- Estimated t½ (Neuro2a cells): 2.63 h
- Fold-change to WT (Neuro2a cells): −1.05

Reference: article PMC5698418 (Nature Communications, 2017)
